# How the values were obtained:
# [1] = test system: German cockroach (Blattella germanica); assay: Choice test arena repellency bioassay, adult male German cockroach, 300-second test; assay type: in vivo; conditions: for Mean Treated / Mean Untreated: 300-second test; for % repellency: (untreated − treated/300)*100
# Procedure: Test Procedure. Repellency bioassays were conducted to assess the repellent properties of compositions containing catnip steam distillate (nepetalactone), Z,E-nepetalactone, E,Z-nepetalactone and DEET against cockroaches. Certified acetone and certified hexane were also tested in order to evaluate solvent effects. (DEET was dissolved in acetone, because DEET is insoluble in hexane. The tested compounds were dissolved in hexane because hexane was the solvent used to extract these compounds from the distillate). One Whatman 125-mm round filter paper was cut in half. One side was treated with one (1) ml of the test compound and the other side was treated with one (1) ml of solvent. The papers were allowed to dry in a fume hood for approximately two (2) minutes before being placed in a 150-mm Petri dish arena. The relative position of the treated side (i.e., to the right or left) of the dish was randomized using a random number table. […] The hole was stopped using a small piece of tape to prevent the insect from escaping. One adult male German cockroach (Blattella germanica) was selected from the colony and dropped into the pre-formed hole in the Petri dish lid. […] Ten (10) replications were performed for each test compound. Results. Using mean values and their related Standard Error of the Mean values (SEM), repellency of the selected samples was determined as shown in Table 2. Significance due to concentration was determined using ANOVA. […] Comparisons between test compounds were made using a two-tailed paired t-test (“paired t-test”) which indicates “differences” as is known in the art and shown in Table 4 (as compared with a “one-tailed” test, which indicates “greater or less than”). Testing Procedure. The same procedure described in Example 1 was used.
# [2] = test system: antennectomized male German cockroaches; assay: Choice test arena behavioral assay of antennectomized male cockroaches; assay type: in vivo, Blattella germanica; conditions: Annectomized male cockroaches
# Procedure: Testing Procedure. Male cockroaches were antennectomized by using a razor blade to remove the antennae as close to the head as possible. The cockroaches were allowed to recover from the procedure for 24 hours before being exposed to the test compounds in the bioassay described in Example 1. Results.
# [3] = test system: German cockroach, Blattella germanica; assay: Choice-test arena bioassay (contact irritancy), German cockroach, Example 6; assay type: in vivo; conditions: 300-second period
# Procedure: (§1) A choice-test arena was used to assess irritancy of test solutions to two common household insect pests, the German cockroach (Blattella germanica) and the house fly (Musca domestica). Catnip essential oil obtained by steam distillation of catnip obtained from the same source as described in the above examples, and the two major components of its essential oil, Z,E-nepetalactone and E,Z-nepetalactone (isolated from the essential oil by preparative TLC), were evaluated for behavioral effects of contact irritancy to the German cockroach. The TLC was performed as described in McElvain, S. M. et al., J. Am. Chem. Soc., 1941, 63, 1558-1563. Catnip essential oil and its major constituent Z,E-nepetalactone were tested against the house fly. N,N-diethyl-m-toluamide (DEET) (Aldrich, St. Louis, Mo.) served as a positive control for the choice-test arena assay and as a point of comparison for measuring insect behavioral effects that result from current commercial insect repellents. Test solutions ranging from 10% to 0.1% (vol/vol) active ingredient (a.i.) were made up in acetone and then delivered on to a filter paper for solvent evaporation. […] Choice-test are for German cockroaches and house flies were constructed from plastic Petri dishes. One-half of a 12.5-cm dia. filter paper was treated with 1 ml test solution, and the other was treated with 1 ml of only solvent (control). Both halves of the filter paper were placed in the choice-test arena. Position of the treated filter paper was randomized using a random-number table.
# (§2) Individual German cockroaches or house flies were placed in each choice-test arena through a centered hole in the lid of the Petri dish and evaluated for a 300-second period. The amount of time the insect spent on the treated and untreated filter papers were recorded and used to calculate a percentage repellency value: Percentage Repellency=((Time on Untreated-Time on Treated)/300)×100
# (§3) Ten replicates of each treatment solution were tested for both German cockroaches and house flies. Details of this assay design and some results have previously been described.
# [4] = test system: house fly, Musca domestica; assay: Choice-test arena bioassay (contact irritancy), house fly; assay type: in vivo; conditions: 300-second period
# Procedure: as §1, §2, §3
# [5] = test system: yellow fever mosquitoes, Aedes aegypti; assay: Static-air repellency chamber, spatial and contact repellency, adult female yellow fever mosquitoes; assay type: in vivo; conditions: application rate 78.6 μg/cm^2
# Procedure: Test Equipment. In this testing, a static air repellency chamber was used. The apparatus consisted of a 9×60-cm section of glass tubing with a 2-cm hole drilled at the midpoint along the length for central introduction of the insects. All of the testing was conducted in an environmental chamber at ambient temperatures.
# Test Methods. The data for spatial repellency was collected at 15 minutes after the introduction of female yellow fever mosquitoes into a static air repellency chamber. Data for the contact repellency was collected after three hours. The concentrations used in the tests are 1% solution (1 ml of it on a 9-cm diameter filter paper). One (1) ml of a 1% (wt/vol) solution of repellent substance containing hexane as a carrier was pipetted onto a 9-cm diameter filter paper results in a concentration of 157 μg/cm^2. The solution contained the desired mass of compound to be tested added to the desired volume of hexane, e.g., for a 1% solution of catnip essential oil, […] was added to 100 ml of hexane.
# One milliliter of the solution was applied to one half of a 9-cm diameter round filter paper with an area of 63.6 cm^2 and then allowed to dry before testing. […] Treated filter papers were placed inside the lids of 9-cm glass petri dishes, and placed over the ends of the glass tube. The position of the treated side, to the right or to the left, was selected by using a random-number table. Approximately fifteen unmated adult female mosquitoes were anaesthetized with CO2 and then introduced to the 9×60-cm glass cylinder through the centered 2-cm hole. Timing began 2 minutes after mosquito introduction, and mosquito distribution inside the static-air choice-test apparatus was observed over a 15-minute period for each treatment to determine spatial repellency. Basically the number of mosquitoes in the non-treated half were considered to be repelled and were counted. Percent repellency was considered to be: (Number of Individuals on Untreated Half−Number of Individuals on Treated Half)/15)×100. Contact repellency was defined in this assay as 100% avoidance of the treated filter paper-after three hours. The experimental design was a completely randomized design using six replications of each treatment.
# All test methods were the same as described in Example 7, except spatial repellency over a longer period.
# Test Methods. […] Also only three replications were used instead of six.
# [6] = 0.1% test solution vs solvent-treated half, male
# [7] = 0.5% test solution vs solvent-treated half, male
# [8] = 1% test solution vs solvent-treated half, male
# [9] = 5% test solution vs solvent-treated half, male
# [10] = dose 16 μg/cm^2, male B. germanica, in 300 seconds
# [11] = dose 80 μg/cm^2, male B. germanica, in 300 seconds
smiles,measurement,setting,value
CCCCCCOC(=O)CCCCC [Hexyl hexanoate],Mean Treated,[1]; amount used 1% solution,142 s
same,Mean Untreated,[1]; amount used 1% solution,158 s
same,% repellency,[1]; amount used 1% solution,5.2%
"CC1=COC(=O)[C@H]2[C@@H]1CC[C@@H]2C [Z,E-Nepetalactone, cis-trans nepetalactone]",Mean seconds on treated side ± SEM,[2]; 160 μg/cm^2,121 ± 10.6 s
same,Mean seconds on untreated side,[2]; 160 μg/cm^2,180 ± 10.5 s
same,Percentage Repellency ± SEM,[3]; application rate 16 μg/cm^2,16.1 ± 7.4a %
same,Percentage Repellency ± SEM,[3]; application rate 80 μg/cm^2,15.4 ± 6.9a %
same,Percentage Repellency ± SEM,[3]; application rate 160 μg/cm^2,56.8 ± 7.8b %
same,Percentage Repellency ± SEM,[3]; application rate 800 μg/cm^2,68.2 ± 5.7b %
same,Mean Treated,[1]; [6],127 s
same,Mean Untreated,[1]; [6],176 s
same,Mean Treated,[1]; [7],128 s
same,Mean Untreated,[1]; [7],174 s
same,Mean Treated,[1]; [8],65.4 s
same,Mean Untreated,[1]; [8],236 s
same,times less time on the treated side as compared with the untreated side,[1]; 5%,~5 times
same,Mean Treated,[1]; [9],47.3 s
same,Mean Untreated,[1]; [9],252 s
same,Mean seconds on treated side ± SEM,"[1]; Non-antennectomized male cockroaches, 160 μg/cm^2",65.4 ± 11.8 s
same,% repellency,[1]; dose 16 μg/cm^2,16%
same,Mean seconds on treated side ± SEM,[1]; [10],127 ± 11.2 a seconds
same,% repellency,[1]; dose 80 μg/cm^2,15%
same,Mean seconds on treated side ± SEM,[1]; [11],128 ± 10.4 a seconds
same,% repellency,[1]; dose 160 μg/cm^2,57%
same,Mean seconds on treated side ± SEM,"[1]; dose 160 μg/cm^2, male B. germanica, in 300 seconds",65.4 ± 11.8 b seconds
same,% repellency,[1]; dose 800 μg/cm^2,68%
same,Mean seconds on treated side ± SEM,"[1]; dose 800 μg/cm^2, male B. germanica, in 300 seconds",47.3 ± 8.7 b seconds
same,Percentage Repellency,[4]; application rate 80 μg/cm^2,87.3%
same,Percentage Repellency,[4]; application rate 160 μg/cm^2,69.3%
same,Percentage Repellency,[4]; application rate 800 μg/cm^2,96.0%
"CC(C)=CCCC(C)CC=O (stereo not drawn) [Citronellal, citronellal, reference compound]",Average Percentage Repellency Over Time,[5]; 60 min,10%
same,Average Percentage Repellency Over Time,[5]; 120 min,19%
same,Average Percentage Repellency Over Time,[5]; 360 min,1%
same,Average Percentage Repellency Over Time,[5]; Initial,79%
"CC(C)=CCc1c2c(c3occ(-c4ccc(O)cc4)c(=O)c3c1O)C=CC(C)(C)O2 [Osajin, osajin]",Mean Treated,[1]; amount used 0.5% solution,117 s
same,Mean Untreated,[1]; amount used 0.5% solution,184 s
same,% repellency,[1]; amount used 0.5% solution,22%
same,Mean Treated,[1]; amount used 1% solution,103 s
same,Mean Untreated,[1]; amount used 1% solution,197 s
same,% repellency,[1]; amount used 1% solution,31%
"c1ccc2ccccc2c1 [Naphthalene, reference compound]",Mean Treated,[1]; amount used 1% solution,117 s
same,Mean Untreated,[1]; amount used 1% solution,184 s
same,% repellency,[1]; amount used 1% solution,22%
"CC(C)=CCc1c2c(c3occ(-c4ccc(O)c(O)c4)c(=O)c3c1O)C=CC(C)(C)O2 [Pomiferin, pomiferin]",Mean Treated,[1]; amount used 1% solution,138 s
same,Mean Untreated,[1]; amount used 1% solution,163 s
same,% repellency,[1]; amount used 1% solution,8.3%
"CC1=COC(=O)C2[C@@H]1CC[C@@H]2C (stereo partly drawn) [E,Z-Nepetalactone, trans-cis nepetalactone]",Mean seconds on treated side ± SEM,[2]; 80 μg/cm^2,153 ± 15.2 s
same,Mean seconds on untreated side,[2]; 80 μg/cm^2,149 ± 15.3 s
same,Percentage Repellency ± SEM,[3]; application rate 16 μg/cm^2,46.4 ± 11.0b %
same,Percentage Repellency ± SEM,[3]; application rate 80 μg/cm^2,79.4 ± 3.5c %
same,Mean Treated,[1]; [6],76.7 s
same,Mean Untreated,[1]; [6],216 s
same,times less time on the treated side as compared with the untreated side,[1]; 0.5%,~8 times
same,Mean Treated,[1]; [7],31.7 s
same,Mean Untreated,[1]; [7],270 s
same,Mean seconds on treated side ± SEM,"[1]; Non-antennectomized male cockroaches, 80 μg/cm^2",31.7 ± 5.2 s
same,% repellency,[1]; dose 16 μg/cm^2,46%
same,Mean seconds on treated side ± SEM,[1]; [10],76.7 ± 13.7 b seconds
same,% repellency,[1]; dose 80 μg/cm^2,79%
same,Mean seconds on treated side ± SEM,[1]; [11],31.7 ± 5.2 c seconds
"CC1=CC[C@@]23[C@@H]([C@@H]12)[C@H](C(C)C)CC[C@H]3C [α-Cubebene, alpha-cubebene]",Mean Treated,[1]; amount used 0.1% solution,118 s
same,Mean Untreated,[1]; amount used 0.1% solution,182 s
same,% repellency,[1]; amount used 0.1% solution,21%
same,Mean Treated,[1]; amount used 0.5% solution,99.4 s
same,Mean Untreated,[1]; amount used 0.5% solution,211 s
same,% repellency,[1]; amount used 0.5% solution,36%

# From patent publication US7939091B2, “Biorational repellents obtained from terpenoids for use against arthropods” (Iowa State University Research Foundation, Inc., priority 1999, dated 2011)
